How the values were obtained:
[1] = tested on: SW1900 cells (KRAS G12D); assay: Cell-based pERK HTRF assay in SW1900 cells (Biological Example 5)
Protocol: (§1) Biological Example 5: Cell-based PERK HTRF assay in AsPC-1, SW1900, HPAC, Capan-2, RKN, H358, HCT116, KP-2, H1573, A549, MKN1, and HT1080 cells
(§2) The inhibition of ERK phosphorylation, as measured using the HTRF Advanced Phospho-ERK 1/2 (Thr202/Tyr204) Detection Assay kit (Perkin Elmer), was used to determine the effectiveness of test compounds in disrupting KRAS-driven protein/effector signaling in cells.
(§3) On day 1, cells were seeded into 96-well plates at 2.5×10^4 cells/well in 100 μL of complete growth media supplemented with 10% fetal bovine serum (FBS) and incubated at 37° C., in the presence of 5% CO2.
(§4) On day 2, cells were treated with compounds diluted in DMSO at 0.25% final DMSO concentration. Compounds were dosed in a 9-point concentration curve with three-fold dilution between concentrations. Cells were incubated in the presence of compound for two hours at 37° C. Following this treatment period, cells were harvested by aspirating the media, adding 40 μL of kit-supplied 1x lysis buffer per well, and shaking for 30 minutes at 250 rpm at room temperature.
(§5) Following cell lysis, samples were homogenized by pipetting up and down twenty times and 16 μL of cell lysate per well was transferred from the 96-well cell culture plate to two wells of a 384-well detection plate. A complete detection buffer was prepared by diluting D2 and Eu Cryptate antibodies 1:20 in kit-provided detection solution, 4 μL of complete detection buffer was then added to each well with lysate. Plates were incubated with gentle rocking for 24 hours at 4° C.
(§6) Following this incubation period, plates were centrifuged at 500×g for one minute and analyzed on a CLARIOstar plate reader. Data was imported into Microsoft Excel and the signal from the 665 nm channel was divided by the signal from the 620 nm channel. % pERK was calculated as: […]
(§7) Data was imported to the Prism software package (Graphpad) and EC50 values were calculated using the log (inhibitor) vs, response—variable slopc (Four parameters) model.

[2] = tested on: HPAC cells (KRAS G12D); assay: Cell-based pERK HTRF assay in HPAC cells (Biological Example 5); settings: Homo sapiens, HPAC
Protocol: as §1, §2, §3, §4, §5, §6, §7

[3] = tested on: Capan-2 cells (KRAS G12V); assay: Cell-based pERK HTRF assay in Capan-2 cells (Biological Example 5)
Protocol: as §1, §2, §3, §4, §5, §6, §7

[4] = tested on: RKN cells (KRAS G12V); assay: Cell-based pERK HTRF assay in RKN cells (Biological Example 5)
Protocol: as §1, §2, §3, §4, §5, §6, §7

[5] = tested on: H358 cells (KRAS G12C); assay: Cell-based pERK HTRF assay in H358 cells (Biological Example 5)
Protocol: as §1, §2, §3, §4, §5, §6, §7

[6] = tested on: MKN1 cells (KRAS amplification); assay: Cell-based pERK HTRF assay in MKN1 cells (Biological Example 5)
Protocol: as §1, §2, §3, §4, §5, §6, §7

[7] = tested on: AsPC-1 cells (KRAS G12D); assay: 3D Cell viability assay in AsPC-1 cells (Biological Example 6); format: cell-based; settings: AsPC-1 (KRAS G12D) spheroids, 72 hours
Protocol: (§8) Biological Example 6: 3D Cell viability assay in AsPC-1, SW1900, HPAC, Capan-2, RKN, H358, HCT116, KP-2, H1573, A549, MKN1, and HT1080 cells
(§9) The inhibition of cellular viability as a result of test compound treatment in a spheroid assay was measured using the CellTiter-Glow 3D Cell Viability Assay (Promega).
(§10) On Day 1, 1000 cells per well were seeded in 150 μL of complete growth media supplemented with 10% fetal bovine serum (FBS) and incubated at 37° C., in the presence of 5% CO2 in 96-well ultra-low attachment microplates (Corning) for 48 hours undisturbed to allow spheroids to form.
(§11) Following spheroid formation, cells were treated with compounds diluted in DMSO at 0.25% final DMSO concentration. Compounds were dosed in a 9-point concentration curve with three-fold dilution between concentrations. Cells were incubated in the presence of compound for 72 hours at 37° C., in the presence of 5% CO2.
(§12) Following this incubation period, the kit-provided CTG reagent was allowed to equilibrate for 30 minutes at room temperature, 150 μL of equilibrated CTG reagent was added to each well, and the plate was sealed before shaking at 250 rpm for 10 minutes at room temperature to lyse the cells, 150 μL of lysate per well was transferred to a 96-well plate and luminescence was read on a CLARIOstar plate reader.
(§13) Data was imported into the Prism software package (Graphpad) and EC50 values were calculated using the log (inhibitor) vs, response—variable slope (Four parameters) model.

[8] = tested on: SW1900 cells (KRAS G12D); assay: 3D Cell viability assay in SW1900 cells (Biological Example 6); format: cell-based; settings: SW1990 (text: SW1900, KRAS G12D) spheroids, 72 hours
Protocol: as §8, §9, §10, §11, §12, §13

[9] = tested on: HPAC cells (KRAS G12D); assay: 3D Cell viability assay in HPAC cells (Biological Example 6); format: cell-based; settings: Homo sapiens, HPAC, 72 h, HPAC (KRAS G12D) spheroids
Protocol: as §8, §9, §10, §11, §12, §13

[10] = tested on: Capan-2 cells (KRAS G12V); assay: 3D Cell viability assay in Capan-2 cells (Biological Example 6); format: cell-based; settings: Capan-2 (KRAS G12V) spheroids, 72 hours
Protocol: as §8, §9, §10, §11, §12, §13

[11] = tested on: RKN cells (KRAS G12V); assay: 3D Cell viability assay in RKN cells (Biological Example 6); format: cell-based; settings: RKN (KRAS G12V) spheroids, 72 hours
Protocol: as §8, §9, §10, §11, §12, §13

[12] = tested on: H358 cells (KRAS G12C); assay: 3D Cell viability assay in H358 cells (Biological Example 6); format: cell-based; settings: H358 (KRAS G12C) spheroids, 72 hours
Protocol: as §8, §9, §10, §11, §12, §13

[13] = tested on: MKN1 cells (KRAS amplification); assay: 3D Cell viability assay in MKN1 cells (Biological Example 6); format: cell-based; settings: MKN (MKN1, KRAS amplification) spheroids, 72 hours
Protocol: as §8, §9, §10, §11, §12, §13

[14] = Homo sapiens, SW1990, SW1990 cells (text: SW1900, KRAS G12D)
[15] = Homo sapiens, Capan-2, Capan-2 (KRAS G12V) cells
[16] = Homo sapiens, NCI-H358, H358 (KRAS G12C) cells
[17] = Homo sapiens, MKN-1, MKN cells (MKN1, KRAS amplification)

SMILES | IC50 [1, 14] [nM] | IC50 [2] [nM] | IC50 [3, 15] [nM] | IC50 [4] [nM] | IC50 [5, 16] [nM] | IC50 [6, 17] [nM] | IC50 ([7]; Homo sapiens, ASPC1) [nM] | IC50 ([8]; Homo sapiens) [nM] | IC50 ([12]; Homo sapiens, NCI-H358) [nM] | IC50 ([13]; Homo sapiens, MKN-1) [nM] | IC50 [9] [nM] | IC50 ([10]; Homo sapiens) [nM] | IC50 [11] [nM] | other results
C[C@H]1Cn2nc(C(=O)N(C)C)cc2CN1c1nc(OC[C@@]23CCCN2C[C@H](F)C3)nc2c(F)c(-c3ccc(F)c4sc(N)c(C#N)c34)c(C(F)(F)F)cc12 (atropisomer, axis not shown) [Compound 610] | ≤ 100 | ≤ 100 | ≤ 100 | ≤ 100 | ≤ 100 | ≤ 100 | ≤ 100 | ≤ 100 | ≤ 100 | ≤ 100 | 100 to 1000 | ≤ 100 | ≤ 100 | –
CCN(c1nc(OC[C@@]23CCCN2C[C@H](F)C3)nc2c(F)c(-c3ccc(F)c4sc(N)c(C#N)c34)c(C(F)(F)F)cc12)[C@H]1CCN(C(=O)C2CC2)[C@@H]1C (atropisomer, axis not shown) [Compound 579] | ≤ 100 | > 1000 | ≤ 100 | ≤ 100 | ≤ 100 | ≤ 100 | ≤ 100 | ≤ 100 | ≤ 100 | ≤ 100 | 100 to 1000 | ≤ 100 | ≤ 100 | –
CCN(c1nc(OC[C@@]23CCCN2C[C@H](F)C3)nc2c(F)c(-c3ccc(F)c4sc(N)c(C#N)c34)c(C(F)(F)F)cc12)[C@H]1CCN(C(=O)c2ncco2)C1 (atropisomer, axis not shown) [Compound 584] | ≤ 100 | 100 to 1000 | ≤ 100 | ≤ 100 | ≤ 100 | ≤ 100 | ≤ 100 | ≤ 100 | ≤ 100 | ≤ 100 | ≤ 100 | ≤ 100 | ≤ 100 | –

Further lines, with some results ahead:

IC50 [1, 14] [nM] | IC50 [2] [nM] | IC50 [3, 15] [nM] | IC50 [4] [nM] | IC50 [5, 16] [nM] | IC50 [6, 17] [nM] | IC50 ([7]; Homo sapiens, ASPC1) [nM] | IC50 ([8]; Homo sapiens) [nM] | IC50 ([12]; Homo sapiens, NCI-H358) [nM] | IC50 ([13]; Homo sapiens, MKN-1) [nM] | SMILES | IC50 [9] [nM] | IC50 ([10]; Homo sapiens) [nM] | IC50 [11] [nM] | other results
≤ 100 | 100 to 1000 | ≤ 100 | – | ≤ 100 | ≤ 100 | ≤ 100 | ≤ 100 | ≤ 100 | ≤ 100 | CCN(c1nc(OC[C@@]23CCCN2C[C@H](F)C3)nc2c(F)c(-c3ccc(F)c4sc(N)c(C#N)c34)c(C(F)(F)F)cc12)[C@H]1C[C@H](C)N(C(C)=O)C1 [Compound 463] | > 1000 | ≤ 100 | – | –
≤ 100 | 100 to 1000 | ≤ 100 | ≤ 100 | ≤ 100 | ≤ 100 | ≤ 100 | ≤ 100 | ≤ 100 | ≤ 100 | CCN(c1nc(OC[C@@]23CCCN2C[C@H](F)C3)nc2c(F)c(-c3ccc(F)c4sc(N)c(C#N)c34)c(C(F)(F)F)cc12)[C@H]1C[C@@H](C)N(C(=O)C2COC2)C1 (atropisomer, axis not shown) [Compound 586] | ≤ 100 | ≤ 100 | ≤ 100 | –
– | – | – | ≤ 100 | – | – | – | – | – | – | CCN(c1nc(OCC23CCCN2CC(F)C3)nc2c(F)c(-c3ccc(F)c4sc(N)c(C#N)c34)c(C(F)(F)F)cc12)C1CC(C)N(C(=O)N2CC(F)C2)C1 (centres unmarked) [Compound 759] | – | – | ≤ 100 | IC50 ([1]; SW1990 cells (text: SW1900, KRAS G12D)): ≤ 100 nM; IC50 ([3]; Capan-2 (KRAS G12V) cells): ≤ 100 nM; IC50 ([5]; H358 (KRAS G12C) cells): ≤ 100 nM; IC50 ([6]; MKN cells (MKN1, KRAS amplification)): ≤ 100 nM; IC50 [7]: ≤ 100 nM; IC50 [8]: ≤ 100 nM; IC50 [10]: ≤ 100 nM; IC50 [12]: ≤ 100 nM; IC50 [13]: ≤ 100 nM

From patent US20260042764A1, “COMPOSITIONS AND METHODS FOR INHIBITION OF KRAS” (TheRas, Inc., priority 2022, published 2026)
